The values that follow come from ChEMBL document CHEMBL1201862, “PubChem BioAssay data set” (2004).

The target in one test is T1, X-box-binding protein 1 (Homo sapiens, UniProt P17861).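 Also: confirmatory dose-response counter-screen serving a CHOP assay.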
T1 sequence (P17861 whole entry): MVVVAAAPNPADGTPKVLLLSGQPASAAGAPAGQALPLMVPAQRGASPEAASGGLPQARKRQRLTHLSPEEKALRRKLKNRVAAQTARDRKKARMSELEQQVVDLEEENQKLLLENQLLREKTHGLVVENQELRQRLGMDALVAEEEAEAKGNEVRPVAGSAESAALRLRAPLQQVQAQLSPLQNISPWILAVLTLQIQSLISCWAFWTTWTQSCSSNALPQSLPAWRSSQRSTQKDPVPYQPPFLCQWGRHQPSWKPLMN
The class given is functional, Cricetulus griseus.

The target in test [1] is DNA damage-inducible transcript 3 protein (Mus musculus, UniProt P35639). The test is classed as functional, Cricetulus griseus.
Chain of DNA damage-inducible transcript 3 protein (P35639 whole entry): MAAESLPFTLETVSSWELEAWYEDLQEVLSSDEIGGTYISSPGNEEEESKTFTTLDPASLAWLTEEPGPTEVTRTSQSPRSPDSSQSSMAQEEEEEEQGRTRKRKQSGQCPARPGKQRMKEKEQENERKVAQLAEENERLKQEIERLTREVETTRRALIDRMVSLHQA
A short description of test [2]: cytotoxicity toward DRD oncogenic fibroblasts, dose response, cell-based, non-viral oncogenic, luminescence (AID 1934). The class given is functional. As to conditions: Homo sapiens.
For test [3], the system named is BJ. Kind of test: cytotoxicity toward BJ-TERT fibroblasts, dose response, cell-based, RAS-independent, luminescence (AID 1933). The test is classed as functional. As to conditions: Homo sapiens.
The subject of test [4] is BJ. The test is described as follows: cells. The test is classed as functional, cell-based. As to conditions: Homo sapiens.
In a further test the test system is J774.A1. The test is described as follows: Confirmation of image-based Screening Assay for Inhibitors of Phagocytosis. [Related pubchem assays (depositor defined):AID1029, AID1643]. The class given is functional, cell-based. As to conditions: Mus musculus.
Test [5] relates to BJ. Kind of test: cytotoxicity toward BJ-TERT-LT-ST fibroblasts, dose response, cell-based, RAS-independent, luminescence (AID 1935).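 Also: BJ fibroblasts immortalized with TERT plus LT and ST oncogenes.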 The note with it: Homo sapiens. The class given is functional.
Test [6] is described as follows: inhibitors of SNCA 5'UTR-driven reporter translation, confirmation, H4 neuroglioma cells, luminescence (AID 1988). The class given is functional, cell-based.
The nature of test [7]: Luminescence Cell-Based Dose Response HTS to Identify Inhibitors of 5'UTR Stem-Loop Driven Prion Protein mRNA Translation in H4 Neuroglioblastoma Cells. [Related pubchem assays: 1827 (Project Summary), 1813 (Primary HTS)]. The class given is functional.
Test [8] can be described thus: Vero E6 cell cytotoxicity, dose response, cytotoxicity control for non-replicating M. tuberculosis project, secondary assay (AID 492998). The test is classed as functional, VeroE6. The note with it: Vero C1008.
The target in a further test is Beta Lactamase (Pseudomonas aeruginosa, UniProt Q932Y6). The test is described as follows: beta-lactamase reporter inhibitor potency, dose response, artefact control for TLR9-MyD88 binding inhibitor project, BLA reporter cells, FRET fluorescence (AID 588341).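 Also: cell based assay in CHO-K1 cells stably expressing beta-lactamase.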 The test is classed as cell-based.
Chain of Beta Lactamase (Q932Y6 whole entry): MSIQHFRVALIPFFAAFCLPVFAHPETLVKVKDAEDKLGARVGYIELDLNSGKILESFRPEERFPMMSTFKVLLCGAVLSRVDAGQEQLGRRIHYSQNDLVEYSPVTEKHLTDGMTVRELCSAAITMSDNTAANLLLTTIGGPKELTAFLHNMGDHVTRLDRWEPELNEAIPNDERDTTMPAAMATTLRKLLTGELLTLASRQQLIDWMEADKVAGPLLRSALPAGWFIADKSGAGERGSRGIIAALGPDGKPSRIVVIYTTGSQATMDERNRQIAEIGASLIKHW
The nature of another test: cells. The class given is functional.
Test [9] is described as follows: THP-1 cell cytotoxicity, dose response, cytotoxicity control for non-replicating M. tuberculosis project (AID 489025). The test is classed as functional.
The next test relates to CHO. The test is described as follows: cytotoxicity in TLR9-MyD88 CHO cells, dose response, cytotoxicity control for TLR9-MyD88 binding inhibitor project, cell-based, luminescence (AID 588339).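 Also: CHO cells stably coexpressing TLR9 and MyD88 fusions from primary screen; compound exposure lasted 48 hours before viability readout.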 As to conditions: Cricetulus griseus. The test is classed as functional, hamster.
Test [10] is described as follows: HepG2 cell cytotoxicity, dose response, cytotoxicity control for non-replicating M. tuberculosis project (AID 489018). The class given is functional. The note with it: Mycobacterium tuberculosis.
The nature of test [11]: inhibitors of firefly luciferase expression or activity, dose response, H4 neuroglioma cells, luminescence (AID 1990). The test is classed as functional, cell-based.
The target of test [12] is T2, Kappa-type opioid receptor (Homo sapiens, UniProt P41145). The test is classed as functional.
T2 sequence (P41145 whole entry): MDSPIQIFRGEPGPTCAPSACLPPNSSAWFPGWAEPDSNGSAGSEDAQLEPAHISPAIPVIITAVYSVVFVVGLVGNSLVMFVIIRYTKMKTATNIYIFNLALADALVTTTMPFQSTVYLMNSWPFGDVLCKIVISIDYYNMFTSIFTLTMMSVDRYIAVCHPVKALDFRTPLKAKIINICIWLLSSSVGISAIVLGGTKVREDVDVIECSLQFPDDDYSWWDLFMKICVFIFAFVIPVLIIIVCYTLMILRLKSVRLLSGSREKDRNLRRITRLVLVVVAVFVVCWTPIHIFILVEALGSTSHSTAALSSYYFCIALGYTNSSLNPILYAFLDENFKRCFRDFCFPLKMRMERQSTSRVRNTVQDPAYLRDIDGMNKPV
Another test deals with Beta-galactosidase (Escherichia coli, UniProt Q8VNN2). The class given is functional.
Chain of Beta-galactosidase (Q8VNN2 whole entry): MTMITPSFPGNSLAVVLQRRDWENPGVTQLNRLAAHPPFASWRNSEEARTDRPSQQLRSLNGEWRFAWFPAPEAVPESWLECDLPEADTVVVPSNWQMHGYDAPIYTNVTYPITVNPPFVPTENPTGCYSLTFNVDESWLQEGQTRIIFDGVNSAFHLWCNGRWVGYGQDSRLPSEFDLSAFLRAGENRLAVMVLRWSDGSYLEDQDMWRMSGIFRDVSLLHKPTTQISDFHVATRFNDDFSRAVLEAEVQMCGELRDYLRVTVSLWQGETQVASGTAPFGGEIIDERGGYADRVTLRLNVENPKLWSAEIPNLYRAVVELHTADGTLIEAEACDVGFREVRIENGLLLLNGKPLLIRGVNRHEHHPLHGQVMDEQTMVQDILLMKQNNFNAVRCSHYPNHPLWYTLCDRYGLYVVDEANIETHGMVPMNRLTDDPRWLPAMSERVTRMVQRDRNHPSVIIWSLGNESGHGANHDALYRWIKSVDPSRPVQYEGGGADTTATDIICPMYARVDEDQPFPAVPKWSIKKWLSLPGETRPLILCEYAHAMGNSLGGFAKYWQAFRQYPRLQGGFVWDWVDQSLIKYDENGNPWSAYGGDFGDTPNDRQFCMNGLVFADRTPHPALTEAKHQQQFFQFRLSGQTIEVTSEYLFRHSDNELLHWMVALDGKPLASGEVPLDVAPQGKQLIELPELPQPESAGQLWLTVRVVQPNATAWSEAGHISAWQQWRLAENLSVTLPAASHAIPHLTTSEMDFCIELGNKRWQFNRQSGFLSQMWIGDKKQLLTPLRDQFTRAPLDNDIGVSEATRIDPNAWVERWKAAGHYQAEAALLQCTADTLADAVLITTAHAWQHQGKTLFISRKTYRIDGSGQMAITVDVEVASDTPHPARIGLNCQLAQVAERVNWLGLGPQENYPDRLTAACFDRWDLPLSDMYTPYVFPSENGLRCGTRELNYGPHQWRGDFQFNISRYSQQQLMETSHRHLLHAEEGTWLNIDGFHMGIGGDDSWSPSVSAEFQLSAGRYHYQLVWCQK
The target of test [13] is T2, Kappa-type opioid receptor. The test is classed as functional. The source holds these as a separate data set.
Test [14] deals with T3, Heat shock factor protein 1 (Mus musculus, UniProt P38532).
T3 sequence (P38532 whole entry): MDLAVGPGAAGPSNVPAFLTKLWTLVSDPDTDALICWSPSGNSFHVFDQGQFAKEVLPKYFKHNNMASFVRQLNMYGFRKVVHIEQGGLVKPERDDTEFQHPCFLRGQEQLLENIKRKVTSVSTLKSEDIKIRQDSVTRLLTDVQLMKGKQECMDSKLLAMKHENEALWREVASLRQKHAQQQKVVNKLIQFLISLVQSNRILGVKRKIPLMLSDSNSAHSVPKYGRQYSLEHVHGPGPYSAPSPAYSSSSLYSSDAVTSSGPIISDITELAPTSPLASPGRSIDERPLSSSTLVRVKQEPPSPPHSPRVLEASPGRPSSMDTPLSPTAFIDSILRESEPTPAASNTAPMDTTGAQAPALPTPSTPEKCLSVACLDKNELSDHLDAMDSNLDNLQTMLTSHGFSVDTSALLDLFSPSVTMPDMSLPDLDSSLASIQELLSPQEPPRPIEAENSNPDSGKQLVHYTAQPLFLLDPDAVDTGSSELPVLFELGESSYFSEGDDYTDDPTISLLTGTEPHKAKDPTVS
The test is described as follows: HSF1 potentiators in luciferase reporter cells, confirmation, cell-based, NIH3T3, luminescence, dose retest (AID 435004).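 Also: stress induced by proteasome inhibitor MG132 added 30 min after compound; luciferase reporter driven by HSF1 response element in NIH3T3 cells; actives raise luminescence as potentiators of the MG132 stress response.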 The class given is functional. (In a reporter assay the amount or activity of a reporter protein is the signal.)

Another test has as its target Mucolipin-3 (Homo sapiens, UniProt Q8TDD5). The test is described as follows: Fluorescence counterscreen assay for […] agonists: dose response cell-based high-throughput screening assay to identify agonists of the transient receptor potential channel ML3 (TRPML3). [Related pubchem assays: 1424, 1448 ]. The test is classed as functional.
The target in another test is Ion channel NompC (Danio rerio, UniProt Q7T1G6). Kind of test: Dose response cell-based high-throughput screening assay for agonists of the transient receptor potential channel N1 (TRPN1). [Related pubchem assays (depositor defined):AID1424, AID1448]. The class given is functional.
Chain of Ion channel NompC (Q7T1G6 whole entry): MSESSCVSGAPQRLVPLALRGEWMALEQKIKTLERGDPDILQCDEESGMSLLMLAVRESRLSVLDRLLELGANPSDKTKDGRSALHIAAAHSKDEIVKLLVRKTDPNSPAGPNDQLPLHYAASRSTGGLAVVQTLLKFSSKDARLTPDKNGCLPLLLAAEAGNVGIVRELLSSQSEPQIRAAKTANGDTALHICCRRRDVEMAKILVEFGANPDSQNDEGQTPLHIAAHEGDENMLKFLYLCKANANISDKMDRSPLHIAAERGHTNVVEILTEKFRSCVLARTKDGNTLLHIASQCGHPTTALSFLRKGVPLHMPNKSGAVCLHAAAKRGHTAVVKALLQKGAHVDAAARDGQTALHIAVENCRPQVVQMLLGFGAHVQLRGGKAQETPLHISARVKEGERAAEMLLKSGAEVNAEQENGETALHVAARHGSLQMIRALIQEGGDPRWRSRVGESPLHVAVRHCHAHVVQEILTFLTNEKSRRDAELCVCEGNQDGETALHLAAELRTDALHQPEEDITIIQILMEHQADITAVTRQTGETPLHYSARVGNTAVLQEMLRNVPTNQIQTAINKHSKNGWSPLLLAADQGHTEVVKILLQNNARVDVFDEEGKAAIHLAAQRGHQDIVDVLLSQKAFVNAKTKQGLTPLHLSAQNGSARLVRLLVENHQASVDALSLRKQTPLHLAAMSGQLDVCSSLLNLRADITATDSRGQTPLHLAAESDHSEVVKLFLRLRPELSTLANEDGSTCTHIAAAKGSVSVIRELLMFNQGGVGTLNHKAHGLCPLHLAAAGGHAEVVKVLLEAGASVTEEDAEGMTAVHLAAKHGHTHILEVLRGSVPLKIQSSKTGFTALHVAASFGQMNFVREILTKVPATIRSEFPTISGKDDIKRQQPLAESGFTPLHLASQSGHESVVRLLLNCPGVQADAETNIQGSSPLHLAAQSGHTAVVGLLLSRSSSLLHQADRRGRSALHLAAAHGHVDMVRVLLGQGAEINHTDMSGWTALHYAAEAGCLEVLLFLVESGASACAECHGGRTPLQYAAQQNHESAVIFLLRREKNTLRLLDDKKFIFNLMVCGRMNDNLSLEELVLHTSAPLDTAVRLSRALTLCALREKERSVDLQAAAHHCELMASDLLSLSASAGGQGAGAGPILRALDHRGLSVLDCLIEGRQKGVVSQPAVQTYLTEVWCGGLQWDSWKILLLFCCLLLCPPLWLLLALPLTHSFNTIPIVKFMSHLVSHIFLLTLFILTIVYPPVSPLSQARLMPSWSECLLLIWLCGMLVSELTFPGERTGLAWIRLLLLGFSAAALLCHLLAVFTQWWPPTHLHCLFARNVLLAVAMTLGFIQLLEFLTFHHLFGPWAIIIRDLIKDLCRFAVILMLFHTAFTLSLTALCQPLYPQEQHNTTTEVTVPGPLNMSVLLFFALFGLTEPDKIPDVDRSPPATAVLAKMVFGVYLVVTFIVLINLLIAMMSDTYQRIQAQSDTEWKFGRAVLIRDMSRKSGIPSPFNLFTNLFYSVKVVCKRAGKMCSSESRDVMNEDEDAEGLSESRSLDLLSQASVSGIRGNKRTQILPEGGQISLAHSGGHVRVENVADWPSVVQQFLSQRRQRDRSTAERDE

Each structure is given as a SMILES string. The source made the active and inactive calls.

Chain of Mucolipin-3 (Q8TDD5 whole entry): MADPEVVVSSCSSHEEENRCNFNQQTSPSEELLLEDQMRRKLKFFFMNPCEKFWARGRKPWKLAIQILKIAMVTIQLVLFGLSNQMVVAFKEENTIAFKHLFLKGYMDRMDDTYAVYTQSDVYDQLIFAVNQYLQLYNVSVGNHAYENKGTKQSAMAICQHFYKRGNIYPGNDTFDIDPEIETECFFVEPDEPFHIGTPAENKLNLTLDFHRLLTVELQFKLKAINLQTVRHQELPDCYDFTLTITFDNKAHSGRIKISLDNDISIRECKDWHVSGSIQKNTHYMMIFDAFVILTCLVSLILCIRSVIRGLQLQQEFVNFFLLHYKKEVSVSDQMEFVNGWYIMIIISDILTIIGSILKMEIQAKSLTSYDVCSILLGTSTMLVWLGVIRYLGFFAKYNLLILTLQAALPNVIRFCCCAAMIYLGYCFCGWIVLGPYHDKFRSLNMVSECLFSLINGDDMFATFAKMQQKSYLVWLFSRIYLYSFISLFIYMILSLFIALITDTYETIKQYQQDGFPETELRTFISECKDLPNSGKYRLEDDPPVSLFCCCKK

On to `CCOC(=O)c1c(-c2ccccc2)oc2ccc(O)c(CN3CCOCC3)c12`, for which the “Absolute IC50 (XBP1)” value at X-box-binding protein 1 is less than 10 µM. Besides, in test [1], the “Absolute IC50 (CHOP)” value was found to be 10 µM.
For `CCN1CCN(c2ncc3c(n2)CC(c2cc(OC)c(OC)c(OC)c2)CC3=O)CC1` (configuration not stated), the 50% effective concentration (EC50) (as a rule, the concentration needed to bring the measured effect to its halfway point) is 2.34 µM (active) in [2], 5.01 µM (active) in the test with BJ [3], 124 µM (active) in the test with BJ [4] and 21.8 µM (active) with BJ [5]. Moreover, the IC50 (commonly the concentration that inhibits the measured activity by half) in the test with J774.A1 is 0.419 µM (active).
Regarding `CS(=O)(=O)c1sc(C#N)c2c1C(=O)CC(c1ccccc1)C2` (configuration not stated), the EC50 is 7.83 µM (active) in test [6]; 10.3 µM (active) in test [7]; > 120 µM (not active) in test [11]; > 31.5 µM (inactive) at Beta-galactosidase; 17.8 µM (active) in test [14]. Also, the figures for the CC50 in [8], in test [9] and in test [10] were 5.26 µM (active), 4.22 µM (active) and 4.85 µM (active), respectively. Also, the half-inhibitory concentration (IC50) on Beta Lactamase is 7.08 µM (active); in the test “cells”, 0.78 µM (active); with CHO, 2.74 µM (active); in [12], 3.24 µM; in test [13], 4.62 µM (active).
Consider `COC(=O)c1ccc(NC(=O)Nc2cccc(F)c2)cc1`, for which the EC50 at Mucolipin-3 was > 29.9 µM (not active); on Ion channel NompC, > 29.9 µM (inactive).
